Patent publication US9932314B2, “Pyrazole compounds and their use as T-type calcium channel blockers” (IDORSIA PHARMACEUTICALS LTD, priority 2015, dated 2018)
pIC50: −log10 of the molar value.

These molecules were tested against T1, voltage-dependent T-type calcium channel subunit alpha-1G (Cav3.2) (Homo sapiens, UniProt O95180) (assay: FLIPR calcium flux assay, HEK293 cells recombinantly expressing Cav3.2). Details: Cav3.2-channel, Fluo-4-AM, 3 min incubation, stimulation with 10 mM CaCl2.
T1 construct: expressed in transfected cells; host or cells: HEK293
T1 sequence (O95180 whole entry): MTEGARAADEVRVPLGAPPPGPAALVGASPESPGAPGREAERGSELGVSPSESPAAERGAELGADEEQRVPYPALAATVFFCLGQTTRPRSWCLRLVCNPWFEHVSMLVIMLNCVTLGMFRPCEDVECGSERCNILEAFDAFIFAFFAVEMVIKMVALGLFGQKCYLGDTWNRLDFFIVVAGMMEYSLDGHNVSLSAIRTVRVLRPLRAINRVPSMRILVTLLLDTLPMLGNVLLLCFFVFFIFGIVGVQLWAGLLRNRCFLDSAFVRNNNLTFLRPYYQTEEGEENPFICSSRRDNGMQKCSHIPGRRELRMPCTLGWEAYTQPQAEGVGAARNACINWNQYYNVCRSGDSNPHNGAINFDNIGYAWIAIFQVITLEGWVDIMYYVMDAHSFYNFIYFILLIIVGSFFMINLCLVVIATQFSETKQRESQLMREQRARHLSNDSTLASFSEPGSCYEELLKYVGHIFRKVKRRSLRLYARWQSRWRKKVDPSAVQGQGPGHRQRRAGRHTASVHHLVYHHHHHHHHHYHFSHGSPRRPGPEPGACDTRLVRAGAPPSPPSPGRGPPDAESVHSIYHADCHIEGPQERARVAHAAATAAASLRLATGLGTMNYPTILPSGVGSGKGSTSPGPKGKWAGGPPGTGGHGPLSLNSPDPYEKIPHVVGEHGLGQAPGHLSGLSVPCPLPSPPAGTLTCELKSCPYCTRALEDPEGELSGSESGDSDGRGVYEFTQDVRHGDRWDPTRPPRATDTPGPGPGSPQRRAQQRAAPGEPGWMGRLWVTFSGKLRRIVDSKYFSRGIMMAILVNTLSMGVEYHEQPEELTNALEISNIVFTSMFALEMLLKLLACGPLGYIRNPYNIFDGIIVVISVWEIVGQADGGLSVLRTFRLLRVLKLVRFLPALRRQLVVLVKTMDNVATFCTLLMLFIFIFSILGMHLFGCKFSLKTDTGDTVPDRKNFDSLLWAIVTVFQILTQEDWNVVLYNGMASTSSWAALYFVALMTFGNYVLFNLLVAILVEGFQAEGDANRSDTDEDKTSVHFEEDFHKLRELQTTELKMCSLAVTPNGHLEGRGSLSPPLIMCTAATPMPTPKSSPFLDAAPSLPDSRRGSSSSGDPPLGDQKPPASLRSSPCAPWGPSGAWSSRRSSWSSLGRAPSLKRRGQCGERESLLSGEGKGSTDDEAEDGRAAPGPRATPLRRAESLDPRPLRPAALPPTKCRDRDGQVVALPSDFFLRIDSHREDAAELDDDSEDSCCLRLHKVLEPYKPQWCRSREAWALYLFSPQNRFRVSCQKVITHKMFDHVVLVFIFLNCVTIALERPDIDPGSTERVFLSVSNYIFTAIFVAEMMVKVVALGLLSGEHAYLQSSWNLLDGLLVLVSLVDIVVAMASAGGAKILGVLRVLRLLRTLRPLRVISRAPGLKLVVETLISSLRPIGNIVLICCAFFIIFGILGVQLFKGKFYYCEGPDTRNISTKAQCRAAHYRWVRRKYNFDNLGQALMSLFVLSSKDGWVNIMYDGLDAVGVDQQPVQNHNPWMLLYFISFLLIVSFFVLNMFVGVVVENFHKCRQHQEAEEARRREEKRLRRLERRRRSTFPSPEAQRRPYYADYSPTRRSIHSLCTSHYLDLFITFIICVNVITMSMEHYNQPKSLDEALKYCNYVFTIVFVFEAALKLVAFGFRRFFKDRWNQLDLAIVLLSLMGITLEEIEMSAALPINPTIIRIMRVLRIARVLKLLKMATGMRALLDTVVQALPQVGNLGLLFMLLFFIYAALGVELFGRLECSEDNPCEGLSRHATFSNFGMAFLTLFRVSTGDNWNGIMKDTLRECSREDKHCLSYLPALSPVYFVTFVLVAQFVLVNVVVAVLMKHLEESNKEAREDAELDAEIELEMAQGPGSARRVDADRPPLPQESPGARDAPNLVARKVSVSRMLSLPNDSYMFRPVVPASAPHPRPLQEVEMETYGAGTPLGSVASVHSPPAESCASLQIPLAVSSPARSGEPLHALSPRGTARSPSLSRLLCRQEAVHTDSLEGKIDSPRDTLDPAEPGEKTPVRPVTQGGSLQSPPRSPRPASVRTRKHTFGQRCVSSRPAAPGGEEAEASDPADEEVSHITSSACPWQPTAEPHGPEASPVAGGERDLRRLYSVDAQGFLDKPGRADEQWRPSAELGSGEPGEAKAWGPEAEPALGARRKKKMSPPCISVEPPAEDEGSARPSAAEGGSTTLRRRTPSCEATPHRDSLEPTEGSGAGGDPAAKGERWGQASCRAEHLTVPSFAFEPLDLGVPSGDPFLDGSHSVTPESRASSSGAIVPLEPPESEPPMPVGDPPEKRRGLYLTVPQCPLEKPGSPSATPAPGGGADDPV
Format: cell-based
Summary of the method: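 HEK293 cells stably expressing human Cav3.2 were loaded with Fluo-4-AM. Compounds diluted in TEAC buffer (pH 7.2) were preincubated for 3 min, then Ca2+ entry was triggered by 10 mM final CaCl2. Inhibition curves were fitted sigmoidally to the area under the fluorescence trace.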
For `CN(CC1CC1)c1ccc(CC(=O)Nc2ccn(Cc3ccc(C#N)cn3)n2)cn1` [Example 184, N-[1-(5-Cyano-pyridin-2-ylmethyl)-1H-pyrazol-3-yl]-2-[6-(cyclopropylmethyl-methyl-amino)-pyridin-3-yl]-acetamide], the pIC50 was 6.31. With `CC(C)c1ccc(CC(=O)Nc2ccn(Cc3ccc(C#N)c(C4CC4)n3)n2)cc1` [Example 133, N-[1-(5-Cyano-6-cyclopropyl-pyridin-2-ylmethyl)-1H-pyrazol-3-yl]-2-(4-isopropyl-phenyl)-acetamide] the pIC50 was 6.72. `N#Cc1ccc(Cn2ccc(NC(=O)Cc3ccc([C@@H]4C[C@H]4C(F)(F)F)cc3)n2)nc1` (racemic) [Example 383, rac-N-[1-(5-Cyano-pyridin-2-ylmethyl)-1H-pyrazol-3-yl]-2-[4-((1R*,2R*)-2-trifluoromethyl-cyclopropyl)-phenyl]-acetamide] showed a pIC50 of 7.44. Molecule `N#Cc1cc(Cn2ccc(NC(=O)Cc3ccc(C4(C#N)CC4)cc3)n2)ccc1F` [Example 355, 2-[4-(1-Cyano-cyclopropyl)-phenyl]-N-[1-(3-cyano-4-fluoro-benzyl)-1H-pyrazol-3-yl]-acetamide] has a pIC50 of 7.59. Work on `COc1ccc(Cn2ccc(NC(=O)Cc3ccc(N(C)C)cc3)n2)nc1` [Example 44, 2-(4-Dimethylamino-phenyl)-N-[1-(5-methoxy-pyridin-2-ylmethyl)-1H-pyrazol-3-yl]-acetamide] yielded a pIC50 of 6.43. `Cn1ccc2ccc(CC(=O)Nc3ccn(Cc4ccc(F)c(C#N)c4)n3)cc21` [Example 309, N-[1-(3-Cyano-4-fluoro-benzyl)-1H-pyrazol-3-yl]-2-(1-methyl-1H-indol-6-yl)-acetamide] gave a pIC50 of 7.57. Molecule `N#Cc1ccc(Cn2ccc(NC(=O)Cc3ccc(C4(C#N)CC4)cc3)n2)nc1` [Example 354, 2-[4-(1-Cyano-cyclopropyl)-phenyl]-N-[1-(5-cyano-pyridin-2-ylmethyl)-1H-pyrazol-3-yl]-acetamide] has a pIC50 of 6.61. Molecule `CC(C)c1ccc(CC(=O)Nc2ccn(Cc3cc(C#N)c(F)cn3)n2)cc1` [Example 401, N-[1-(4-Cyano-5-fluoro-pyridin-2-ylmethyl)-1H-pyrazol-3-yl]-2-(4-isopropyl-phenyl)-acetamide] has a pIC50 of 6.90. Work on `Cc1ccc(Cn2ccc(NC(=O)Cc3ccc(N4CCCC4)nc3)n2)nc1C#N` [Example 373, N-[1-(6-Cyano-5-methyl-pyridin-2-ylmethyl)-1H-pyrazol-3-yl]-2-(6-pyrrolidin-1-yl-pyridin-3-yl)-acetamide] yielded a pIC50 of 6.46. In the case of `CC1(C)C(=O)Nc2ccc(CC(=O)Nc3ccn(Cc4ccc(F)c(F)c4)n3)cc21` [Example 228, N-[1-(3,4-Difluoro-benzyl)-1H-pyrazol-3-yl]-2-(3,3-dimethyl-2-oxo-2,3-dihydro-1H-indol-5-yl)-acetamide], the pIC50 was 7.36. For `CN(C)c1ccc(CC(=O)Nc2ccn(Cc3ccc(F)cn3)n2)cc1` [Example 149, 2-(4-Dimethylamino-phenyl)-N-[1-(5-fluoro-pyridin-2-ylmethyl)-1H-pyrazol-3-yl]-acetamide], the pIC50 was 7.07. With `O=C(Cc1ccc(-c2ccccn2)cc1)Nc1ccn(Cc2ccc(F)cc2)n1` [Example 82, N-[1-(4-Fluoro-benzyl)-1H-pyrazol-3-yl]-2-(4-pyridin-2-yl-phenyl)-acetamide] the pIC50 was 7.48. `CC(C)(C)c1ccc(CC(=O)Nc2ccn(Cc3cc(C#N)c(F)cn3)n2)cc1` [Example 400, 2-(4-tert-Butyl-phenyl)-N-[1-(4-cyano-5-fluoro-pyridin-2-ylmethyl)-1H-pyrazol-3-yl]-acetamide] was tested, and the pIC50 was 7.31. `Cn1cc(C#N)c2cc(CC(=O)Nc3ccn(Cc4ccc(F)c(C#N)c4)n3)ccc21` [Example 329, N-[1-(3-Cyano-4-fluoro-benzyl)-1H-pyrazol-3-yl]-2-(3-cyano-1-methyl-1H-indol-5-yl)-acetamide] was tested, and the pIC50 was 7.10. For `CCN(C)c1ccc(CC(=O)Nc2ccn(Cc3ccc(C#N)cc3)n2)cn1` [Example 173, N-[1-(4-Cyano-benzyl)-1H-pyrazol-3-yl]-2-[6-(ethyl-methyl-amino)-pyridin-3-yl]-acetamide], the pIC50 was 6.73. `O=C(Cc1ccc(N2CCC2)nc1)Nc1ccn(Cc2ccc(F)c(F)c2)n1` [Example 99, 2-(6-Azetidin-1-yl-pyridin-3-yl)-N-[1-(3,4-difluoro-benzyl)-1H-pyrazol-3-yl]-acetamide] showed a pIC50 of 7.32. In the case of `N#Cc1ccc(Cn2ccc(NC(=O)Cc3ccc(OCC4CC4)c(OC(F)(F)F)c3)n2)nc1` [Example 397, N-[1-(5-Cyano-pyridin-2-ylmethyl)-1H-pyrazol-3-yl]-2-(4-cyclopropylmethoxy-3-trifluoromethoxy-phenyl)-acetamide], the pIC50 was 7.36. With `COc1ccc(Cn2ccc(NC(=O)Cc3cnc4c(ccn4C)c3)n2)cc1` [Example 215, N-[1-(4-Methoxy-benzyl)-1H-pyrazol-3-yl]-2-(1-methyl-1H-pyrrolo[2,3-b]pyridin-5-yl)-acetamide] the pIC50 was 6.22. `Cc1ccc(Cn2ccc(NC(=O)Cc3ccc4c(c3)c(C)nn4C)n2)nc1C#N` [Example 368, N-[1-(6-Cyano-5-methyl-pyridin-2-ylmethyl)-1H-pyrazol-3-yl]-2-(1,3-dimethyl-1H-indazol-5-yl)-acetamide] gave a pIC50 of 6.52. For `N#Cc1ccc(Cn2ccc(NC(=O)Cc3ccc(C4CC(F)(F)C4)cc3)n2)nc1` [Example 305, N-[1-(5-Cyano-pyridin-2-ylmethyl)-1H-pyrazol-3-yl]-2-[4-(3,3-difluoro-cyclobutyl)-phenyl]-acetamide], the pIC50 was 7.54. In the case of `O=C(Cc1ccc(N2CCCC2=O)cc1)Nc1ccn(Cc2ccc(F)cc2)n1` [Example 204, N-[1-(4-Fluoro-benzyl)-1H-pyrazol-3-yl]-2-[4-(2-oxo-pyrrolidin-1-yl)-phenyl]-acetamide], the pIC50 was 7.10. `Cc1cc(CC(=O)Nc2ccn(Cc3ccc(F)c(C#N)n3)n2)cnc1OCC(F)(F)F` [Example 418, N-[1-(6-Cyano-5-fluoro-pyridin-2-ylmethyl)-1H-pyrazol-3-yl]-2-[5-methyl-6-(2,2,2-trifluoro-ethoxy)-pyridin-3-yl]-acetamide] was tested, and the pIC50 was 7.03. With `CC(C)c1ccc(CC(=O)Nc2ccn(Cc3ccc(C#N)cn3)n2)cc1` [Example 71, N-[1-(5-Cyano-pyridin-2-ylmethyl)-1H-pyrazol-3-yl]-2-(4-isopropyl-phenyl)-acetamide] the pIC50 was 7.22. `CC(C)c1ccc(CC(=O)Nc2ccn(Cc3cc(C(F)F)c(C#N)cn3)n2)cc1` [Example 386, N-[1-(5-cyano-4-difluoromethyl-pyridin-2-ylmethyl)-1H-pyrazol-3-yl]-2-(4-isopropyl-phenyl)-acetamide] showed a pIC50 of 7.16. Work on `Cn1ccc2cc(CC(=O)Nc3ccn(Cc4ccc(F)cc4)n3)cnc21` [Example 213, N-[1-(4-Fluoro-benzyl)-1H-pyrazol-3-yl]-2-(1-methyl-1H-pyrrolo[2,3-b]pyridin-5-yl)-acetamide] yielded a pIC50 of 7.51. In the case of `COC(C)c1ccc(CC(=O)Nc2ccn(Cc3ccc(F)c(C#N)c3)n2)cc1` (racemic) [Example 319, rac-N-[1-(3-Cyano-4-fluoro-benzyl)-1H-pyrazol-3-yl]-2-[4-(1-methoxy-ethyl)-phenyl]-acetamide], the pIC50 was 7.18. `Cn1ncc2cc(CC(=O)Nc3ccn(Cc4ccc(C#N)cc4)n3)ccc21` [Example 252, N-[1-(4-Cyano-benzyl)-1H-pyrazol-3-yl]-2-(1-methyl-1H-indazol-5-yl)-acetamide] was tested, and the pIC50 was 7.25. Molecule `CC(C)c1ccc(CC(=O)Nc2ccn(Cc3ccc(C#N)c(OCC(F)(F)F)n3)n2)cc1` [Example 117, N-{1-[5-Cyano-6-(2,2,2-trifluoro-ethoxy)-pyridin-2-ylmethyl]-1H-pyrazol-3-yl}-2-(4-isopropyl-phenyl)-acetamide] has a pIC50 of 6.48. Work on `O=C(Cc1ccc(-c2cncnc2)cc1)Nc1ccn(Cc2ccc(F)cc2)n1` [Example 86, N-[1-(4-Fluoro-benzyl)-1H-pyrazol-3-yl]-2-(4-pyrimidin-5-yl-phenyl)-acetamide] yielded a pIC50 of 6.85. Molecule `CN(C)c1ccc(CC(=O)Nc2ccn(Cc3ccc(F)cc3)n2)cn1` [Example 4, 2-(6-Dimethylamino-pyridin-3-yl)-N-[1-(4-fluoro-benzyl)-1H-pyrazol-3-yl]-acetamide] has a pIC50 of 7.09. `COc1ccc(Cn2ccc(NC(=O)Cc3ccc(C(C)C)cc3)n2)nc1` [Example 131, 2-(4-Isopropyl-phenyl)-N-[1-(5-methoxy-pyridin-2-ylmethyl)-1H-pyrazol-3-yl]-acetamide] showed a pIC50 of 7.06. In the case of `Cc1cc(Cn2ccc(NC(=O)Cc3ccc(N(C)C)cc3)n2)cc(C)c1F` [Example 25, 2-(4-Dimethylamino-phenyl)-N-[1-(4-fluoro-3,5-dimethyl-benzyl)-1H-pyrazol-3-yl]-acetamide], the pIC50 was 7.19. With `Cc1nccnc1-c1ccc(CC(=O)Nc2ccn(Cc3ccc(F)cc3)n2)cc1` [Example 80, N-[1-(4-Fluoro-benzyl)-1H-pyrazol-3-yl]-2-[4-(3-methyl-pyrazin-2-yl)-phenyl]-acetamide] the pIC50 was 7.04. `N#Cc1c(F)cc(Cn2ccc(NC(=O)Cc3ccc(C4(F)COC4)cc3)n2)cc1F` [Example 347, N-[1-(4-Cyano-3,5-difluoro-benzyl)-1H-pyrazol-3-yl]-2-[4-(3-fluoro-oxetan-3-yl)-phenyl]-acetamide] gave a pIC50 of 7.07. With `Cn1ncc2ccc(CC(=O)Nc3ccn(Cc4ccc(C#N)cc4)n3)cc21` [Example 295, N-[1-(4-Cyano-benzyl)-1H-pyrazol-3-yl]-2-(1-methyl-1H-indazol-6-yl)-acetamide] the pIC50 was 6.51. `O=C(Cc1ccc(-c2cccnc2)cc1)Nc1ccn(Cc2ccc(F)cc2)n1` [Example 83, N-[1-(4-Fluoro-benzyl)-1H-pyrazol-3-yl]-2-(4-pyridin-3-yl-phenyl)-acetamide] showed a pIC50 of 7.59. `CC(C)c1ccc(CC(=O)Nc2ccn(Cc3ccc(F)c(C#N)n3)n2)cc1` [Example 210, N-[1-(6-Cyano-5-fluoro-pyridin-2-ylmethyl)-1H-pyrazol-3-yl]-2-(4-isopropyl-phenyl)-acetamide] gave a pIC50 of 8.10. `Cn1ccc2ccc(CC(=O)Nc3ccn(Cc4ccc(C#N)cn4)n3)cc21` [Example 302, N-[1-(5-Cyano-pyridin-2-ylmethyl)-1H-pyrazol-3-yl]-2-(1-methyl-1H-indol-6-yl)-acetamide] gave a pIC50 of 7.41.
